Reference: paper PMC5342726, “Identification of small molecule inhibitors of ERCC1-XPF that inhibit DNA repair and potentiate cisplatin efficacy in cancer cells” (Oncotarget, 2016)

Tested on: ERCC1 protein
Test: Western blot of ERCC1 protein stability
Assay type: cell-based
Conditions: 50 μM, 24, 48 and 72 hours, compared to cisplatin control treatment
Experimental: In order to study if the compounds' inhibitory activity of ERCC1-XPF incision is due to inhibition of DNA binding ability, we performed EMSAs. One possibility for ERCC1-XPF enzyme inhibition is via inhibition of the ERCC1-XPF binding to DNA. In this assay, we incubated the titrated Hit 1 or 2 respectively with purified ERCC1-XPF on ice and reactions were initiated by the addition of the 5'-[^32P] radiolabeled DNA substrate 37°C. The samples were separated on a 10% native gel and the products were visualized via phosphorimager analysis. […] If these compounds were affecting the protein-protein interaction between ERCC1 and XPF, we would expect to observe loss of protein following treatment similar to what we have observed with ERCC1 and XPF knockdowns.
Supplementary Figure S3: A. Analysis of 16168 and 143099 on XPG incision activity. Compounds were titrated and inhibition of
XPG incision activity was quantified for 16168 (open circles) or 143099 (filled circles). The results are presented as the mean ± SEM of 3
independent experiments. B. Western bots assessing ERCC1 protein stability following cisplatin (IC50 concentration), 143099 (50 μM) and […]

SMILES | effect on ERCC1 protein levels
Cc1ccc(S(=O)(=O)Oc2cc(S(=O)(=O)O)cc3cc(S(=O)(=O)O)cc(N)c23)cc1 [NSC16168] | neither Hit 1 nor Hit 2 affects ERCC1 protein levels
Oc1cc(O)c2c(c1)OC(c1ccc(O)c(O)c1)C(O)C2c1c(O)cc(O)c2c1OC(c1ccc(O)c(O)c1)C(O)C2 (centres unmarked) [NSC143099] | neither Hit 1 nor Hit 2 affects ERCC1 protein levels
